The subject of experiment [1] is SIVmac239. As to the kind of experiment: Absolute CD4 counts in SIV-infected macaques. It counts as in vivo. The following applies: from pre-PMPA levels of <500/μl. From the text:
(§1) A cohort of highly viremic macaques chronically infected for over two years with SIVmac239 was used as a chronic and pathogenic model of immunodeficiency virus infection. The animals were identified as RDg-7, RJo-6, RMi-7 and RSp-6. To test the effect on these animals of administration of a delipidated immunodeficiency virus composition comprising modified, partially delipidated immunodeficiency viral particles, also referred to as therapeutic vaccine compositions or therapeutic vaccines, autologous immunodeficiency virus was delipidated and administered to the experimental animals following a 30 day antiretroviral therapy (ART) with an antiviral drug PMPA. […] The animals were then subjected to lymph node targeted immunization at monthly intervals with 1, 1 and 10 μg of autologous delipidated SIV virus composition, obtained substantially as described elsewhere herein. Four weeks after the last boost, ART was discontinued and the animals were monitored for virological and immunological parameters.

Experiment [2] concerns SIVmac239. As to the kind of experiment: Plasma viral loads in macaques chronically infected with SIVmac239. It counts as in vivo.
Source text: as §1
The virological and immunological parameters were determined substantially as follows. Viral loads, schematically shown in FIGS. 13-18, were analyzed by SIV enzyme immunoassay (EIA) substantially as described elsewhere herein. […] Plates were read at a 450 nm wavelength using an ELISA reader. […]

These results are taken from patent publication US7439052B2, “Method of making modified immunodeficiency virus particles” (Lipid Sciences, priority 2000, dated 2008).

Bounds are passed on as bounds.

As to `C[C@H](Cn1cnc2c(N)ncnc21)OCP(=O)(O)O` [PMPA], the “absolute CD4 counts” value in experiment [1] is recorded as “increases in absolute CD4 counts”. Also, in experiment [2] (macaques chronically infected with SIVmac239), the “viral loads after 30 day antiretroviral therapy” value is listed as “less than 80 copies/ml of viral RNA”. Further, the “plasma viral loads under treatment (below the limits of detection)” value in experiment [2] (reduced from 10^4-10^6) is recorded as below 10 viral RNA copies/ml.
